# Test results from ChEMBL document CHEMBL5052819, “Peptide targeting gip and glp-2 receptors for treating bone disorders” (2020).
# The source made the active and inactive calls. The rule behind the calls is not given here.
# What was measured:
# RAW264.7 = experiment: Inhibition of RANKL-induced osteoclastogenesis in mouse RAW264.7 cells measured after 110 hrs by TRAcP staining based assay; assay type: functional, cell-based; details: RAW264.7, 110 h
# HEK293 = experiment: Activation of GIP/GLP2 receptor transfected in human HEK293 cells assessed as increase in intracellular cAMP level at 1 nM; assay type: cell-based; details: filed as activator
# Mus musculus [1] = experiment: Anti-osteoporosis activity in ovariectomized BALB/c mouse at 25 nmol/kg, sc assessed as increase in collagen maturity; assay type: functional
# Mus musculus [2] = experiment: Anti-osteoporosis activity in ovariectomized BALB/c mouse at 25 nmol/kg, sc assessed as decrease in mean phosphate/amide ratio; assay type: functional; set-up: scale not given: the % may be the effect or the level left
# Mus musculus [3] = experiment: Anti-osteoporosis activity in ovariectomized BALB/c mouse at 25 nmol/kg/day, sc assessed as increase in post-yield displacement of cortical bone; assay type: functional
# Mus musculus [4] = experiment: Anti-osteoporosis activity in ovariectomized BALB/c mouse at 25 nmol/kg/day, sc assessed as reduction in trabecular bone stiffness; assay type: functional, organism-based
# [5] = Toxicity in ovariectomized BALB/c mouse assessed as effect on body mass at 25 nmol/kg/day, sc; details: in vivo
# Mus musculus [6] = experiment: Anti-osteoporosis activity in ovariectomized BALB/c mouse at 25 nmol/kg/day, sc assessed as increase in ultimate displacement of cortical bone; assay type: functional
# [7] = Toxicity in ovariectomized BALB/c mouse at 25 nmol/kg, sc assessed as effect on morphological changes in liver; assay type: organism-based; details: in vivo
# Mus musculus [8] = experiment: Anti-osteoporosis activity in ovariectomized BALB/c mouse at 25 nmol/kg/day, sc assessed as effect on cortical bone microarchitecture; assay type: functional, organism-based
# Mus musculus [9] = experiment: Anti-osteoporosis activity in ovariectomized BALB/c mouse at 25 nmol/kg/day, sc assessed as increase in work-to-fracture of cortical bone; assay type: functional
# Mus musculus [10] = experiment: Anti-osteoporosis activity in ovariectomized BALB/c mouse at 25 nmol/kg, sc assessed as increase in acid phosphate content heterogeneity; assay type: functional
# MC3T3-E1 = experiment: Cytotoxicity against mouse MC3T3-E1 cells at 1 uM measured after 24 hrs by trypan blue assay; assay type: toxicity, cell-based; details: mc3t3-e1, 24 h
# Mus musculus [11] = experiment: Anti-osteoporosis activity in ovariectomized BALB/c mouse at 25 nmol/kg, sc assessed as increase in collagen maturity heterogeneity; assay type: functional
# [12] = Toxicity in ovariectomized BALB/c mouse at 25 nmol/kg, sc assessed as effect on morphological changes in pancreas; assay type: organism-based; details: in vivo
# [13] = Toxicity in ovariectomized BALB/c mouse assessed as effect on body mass at 25 to 100 nmol/kg/day, sc
compound,measurement,setting,value
CC[C@H](C)[C@H](NC(=O)[C@H](CO)NC(=O)[C@H](Cc1ccccc1)NC(=O)[C@H](CC(=O)O)NC(=O)[C@H](CO)NC(=O)[C@@H](NC(=O)[C@H](Cc1ccccc1)NC(=O)[C@H](CO)NC(=O)CNC(=O)[C@H](CCC(=O)O)NC(=O)CNC(=O)[C@@H](N)Cc1cnc[nH]1)C(C)C)C(=O)N[C@@H](C)C(=O)N[C@@H](CC(C)C)C(=O)N[C@@H](CC(=O)O)C(=O)N[C@@H](CCCCN)C(=O)N[C@@H](CC(C)C)C(=O)N[C@@H](C)C(=O)N[C@@H](C)C(=O)N[C@@H](CCCNC(=N)N)C(=O)N[C@@H](CC(=O)O)C(=O)N[C@@H](Cc1ccccc1)C(=O)N[C@H](C(=O)N[C@@H](CC(N)=O)C(=O)N[C@@H](Cc1c[nH]c2ccccc12)C(=O)N[C@@H](CC(C)C)C(=O)N[C@@H](CC(C)C)C(=O)N[C@@H](CCC(N)=O)C(=O)N[C@H](C(=O)N[C@@H](CCCCN)C(N)=O)[C@@H](C)O)C(C)C,IC50,RAW264.7,180 pM
CC[C@H](C)[C@H](NC(=O)[C@H](CO)NC(=O)[C@H](CCSC)NC(=O)[C@H](CCC(=O)O)NC(=O)[C@H](CO)NC(=O)[C@@H](NC(=O)[C@H](Cc1ccccc1)NC(=O)[C@H](CO)NC(=O)CNC(=O)[C@H](CCC(=O)O)NC(=O)CNC(=O)[C@@H](N)Cc1cnc[nH]1)C(C)C)C(=O)N[C@H](C(=O)N[C@@H](CC(C)C)C(=O)N[C@@H](CC(=O)O)C(=O)N[C@@H](CCCCN)C(=O)N[C@@H](CC(C)C)C(=O)N[C@@H](C)C(=O)N[C@@H](C)C(=O)N[C@@H](CCCNC(=N)N)C(=O)N[C@@H](CC(=O)O)C(=O)N[C@@H](Cc1ccccc1)C(=O)N[C@H](C(=O)N[C@@H](CC(N)=O)C(=O)N[C@@H](Cc1c[nH]c2ccccc12)C(=O)N[C@@H](CC(C)C)C(=O)N[C@@H](CC(C)C)C(=O)N[C@@H](CCC(N)=O)C(=O)N[C@H](C(=O)N[C@@H](CCCCN)C(N)=O)[C@@H](C)O)C(C)C)C(C)C,IC50,RAW264.7,4630 pM
CC[C@H](C)[C@H](NC(=O)[C@H](CO)NC(=O)[C@H](Cc1ccc(O)cc1)NC(=O)[C@H](CC(=O)O)NC(=O)[C@H](CO)NC(=O)[C@@H](NC(=O)[C@H](Cc1ccccc1)NC(=O)[C@@H](NC(=O)CNC(=O)[C@H](CCC(=O)O)NC(=O)[C@@H](C)NC(=O)[C@@H](N)Cc1ccc(O)cc1)[C@@H](C)O)[C@@H](C)CC)C(=O)N[C@@H](C)C(=O)N[C@@H](CCSC)C(=O)N[C@@H](CC(=O)O)C(=O)N[C@@H](CCCCN)C(=O)N[C@H](C(=O)N[C@@H](Cc1cnc[nH]1)C(=O)N[C@@H](CCC(N)=O)C(=O)N[C@@H](CCC(N)=O)C(=O)N[C@@H](CC(=O)O)C(=O)N[C@@H](Cc1ccccc1)C(=O)N[C@H](C(=O)N[C@@H](CC(N)=O)C(=O)N[C@@H](Cc1c[nH]c2ccccc12)C(=O)N[C@@H](CC(C)C)C(=O)N[C@@H](CC(C)C)C(=O)N[C@@H](C)C(=O)N[C@@H](CCC(N)=O)C(=O)N[C@@H](CCCCN)C(N)=O)C(C)C)[C@@H](C)CC,Activity,HEK293,Active
same,IC50,RAW264.7,40.1 pM
CC[C@H](C)[C@H](NC(=O)[C@H](CO)NC(=O)[C@H](CCSC)NC(=O)[C@H](CC(=O)O)NC(=O)[C@H](CO)NC(=O)CNC(=O)[C@H](Cc1ccccc1)NC(=O)[C@H](CO)NC(=O)CNC(=O)[C@H](CCC(=O)O)NC(=O)CNC(=O)[C@@H](N)Cc1cnc[nH]1)C(=O)N[C@@H](C)C(=O)N[C@@H](CC(C)C)C(=O)N[C@@H](CC(=O)O)C(=O)N[C@@H](CCCCN)C(=O)N[C@@H](CC(C)C)C(=O)N[C@@H](C)C(=O)N[C@@H](C)C(=O)N[C@@H](CCCNC(=N)N)C(=O)N[C@@H](CC(=O)O)C(=O)N[C@@H](Cc1ccccc1)C(=O)N[C@H](C(=O)N[C@@H](CC(N)=O)C(=O)N[C@@H](Cc1c[nH]c2ccccc12)C(=O)N[C@@H](CC(C)C)C(=O)N[C@@H](CC(C)C)C(=O)N[C@@H](CCC(N)=O)C(=O)N[C@H](C(=O)N[C@@H](CCCCN)C(=O)N[C@H](C(=O)N[C@H](C(=O)N[C@@H](CC(=O)O)C(N)=O)[C@@H](C)O)[C@@H](C)CC)[C@@H](C)O)C(C)C,Activity,Mus musculus [1],10%
same,Activity,Mus musculus [2],6%
same,Activity,Mus musculus [3],70%
same,Activity,Mus musculus [4],Active
same,Activity,[5],Non-Toxic
same,Activity,Mus musculus [6],34%
same,Activity,[7],Non-Toxic
same,Activity,Mus musculus [8],inactive
same,Activity,Mus musculus [9],37%
same,Activity,HEK293,Active
same,IC50,RAW264.7,18.2 pM
same,Activity,Mus musculus [10],21%
same,Activity,MC3T3-E1,Non-Toxic
same,Activity,Mus musculus [11],28%
same,Activity,[12],Non-Toxic
CC(C)C[C@H](NC(=O)[C@H](CCCCN)NC(=O)[C@H](CC(=O)O)NC(=O)[C@H](CC(C)C)NC(=O)[C@@H](NC(=O)[C@@H](NC(=O)[C@H](CO)NC(=O)[C@H](Cc1ccccc1)NC(=O)[C@H](CC(=O)O)NC(=O)[C@H](CO)NC(=O)[C@@H](NC(=O)[C@H](Cc1ccccc1)NC(=O)[C@H](CO)NC(=O)CNC(=O)[C@H](CCC(=O)O)NC(=O)CNC(=O)[C@@H](N)Cc1cnc[nH]1)C(C)C)C(C)C)C(C)C)C(=O)N[C@@H](C)C(=O)N[C@@H](C)C(=O)N[C@@H](CCCNC(=N)N)C(=O)N[C@@H](CC(=O)O)C(=O)N[C@@H](Cc1ccccc1)C(=O)N[C@H](C(=O)N[C@@H](CC(N)=O)C(=O)N[C@@H](Cc1c[nH]c2ccccc12)C(=O)N[C@@H](CC(C)C)C(=O)N[C@@H](CC(C)C)C(=O)N[C@@H](CCC(N)=O)C(=O)N[C@H](C(=O)N[C@@H](CCCCN)C(N)=O)[C@@H](C)O)C(C)C,IC50,RAW264.7,9.6 pM
CC[C@H](C)[C@H](NC(=O)[C@H](CO)NC(=O)[C@H](CCSC)NC(=O)[C@H](CC(=O)O)NC(=O)[C@H](CO)NC(=O)[C@@H](NC(=O)[C@H](Cc1ccccc1)NC(=O)[C@H](CO)NC(=O)CNC(=O)[C@H](CCC(=O)O)NC(=O)CNC(=O)[C@@H](N)Cc1cnc[nH]1)C(C)C)C(=O)N[C@H](C(=O)N[C@@H](CC(C)C)C(=O)N[C@@H](CC(=O)O)C(=O)N[C@@H](CCCCN)C(=O)N[C@@H](CC(C)C)C(=O)N[C@@H](C)C(=O)N[C@@H](C)C(=O)N[C@@H](CCCNC(=N)N)C(=O)N[C@@H](CC(=O)O)C(=O)N[C@@H](Cc1ccccc1)C(=O)N[C@H](C(=O)N[C@@H](CC(N)=O)C(=O)N[C@@H](Cc1c[nH]c2ccccc12)C(=O)N[C@@H](CC(C)C)C(=O)N[C@@H](CC(C)C)C(=O)N[C@@H](CCC(N)=O)C(=O)N[C@H](C(=O)N[C@@H](CCCCN)C(N)=O)[C@@H](C)O)C(C)C)C(C)C,IC50,[13],Non-Toxic
CSCC[C@H](NC(=O)[C@H](CC(=O)O)NC(=O)[C@H](CO)NC(=O)[C@@H](NC(=O)[C@H](Cc1ccccc1)NC(=O)[C@H](CO)NC(=O)CNC(=O)[C@H](CCC(=O)O)NC(=O)CNC(=O)[C@@H](N)Cc1cnc[nH]1)C(C)C)C(=O)N[C@@H](CO)C(=O)N[C@H](C(=O)N[C@H](C(=O)N[C@@H](CC(C)C)C(=O)N[C@@H](CC(=O)O)C(=O)N[C@@H](CCCCN)C(=O)N[C@@H](CC(C)C)C(=O)N[C@@H](C)C(=O)N[C@@H](C)C(=O)N[C@@H](CCCNC(=N)N)C(=O)N[C@@H](CC(=O)O)C(=O)N[C@@H](Cc1ccccc1)C(=O)N[C@H](C(=O)N[C@@H](CC(N)=O)C(=O)N[C@@H](Cc1c[nH]c2ccccc12)C(=O)N[C@@H](CC(C)C)C(=O)N[C@@H](CC(C)C)C(=O)N[C@@H](CCC(N)=O)C(=O)N[C@H](C(=O)N[C@@H](CCCCN)C(N)=O)[C@@H](C)O)C(C)C)C(C)C)C(C)C,IC50,RAW264.7,11.6 pM
CC[C@H](C)[C@H](NC(=O)[C@H](CO)NC(=O)[C@H](Cc1ccccc1)NC(=O)[C@H](CC(=O)O)NC(=O)[C@H](CO)NC(=O)[C@@H](NC(=O)[C@H](Cc1ccccc1)NC(=O)[C@H](CO)NC(=O)CNC(=O)[C@H](CCC(=O)O)NC(=O)CNC(=O)[C@@H](N)Cc1cnc[nH]1)[C@@H](C)O)C(=O)N[C@@H](C)C(=O)N[C@@H](CC(C)C)C(=O)N[C@@H](CC(=O)O)C(=O)N[C@@H](CCCCN)C(=O)N[C@@H](CC(C)C)C(=O)N[C@@H](C)C(=O)N[C@@H](C)C(=O)N[C@@H](CCCNC(=N)N)C(=O)N[C@@H](CC(=O)O)C(=O)N[C@@H](Cc1ccccc1)C(=O)N[C@H](C(=O)N[C@@H](CC(N)=O)C(=O)N[C@@H](Cc1c[nH]c2ccccc12)C(=O)N[C@@H](CC(C)C)C(=O)N[C@@H](CC(C)C)C(=O)N[C@@H](CCC(N)=O)C(=O)N[C@H](C(=O)N[C@@H](CCCCN)C(N)=O)[C@@H](C)O)C(C)C,IC50,RAW264.7,16.8 pM
CC(C)C[C@H](NC(=O)[C@H](CCCCN)NC(=O)[C@H](CC(=O)O)NC(=O)[C@H](CC(C)C)NC(=O)[C@@H](NC(=O)[C@@H](NC(=O)[C@H](CO)NC(=O)[C@H](CC(C)C)NC(=O)[C@H](CC(=O)O)NC(=O)[C@H](CO)NC(=O)[C@@H](NC(=O)[C@H](Cc1ccccc1)NC(=O)[C@H](CO)NC(=O)CNC(=O)[C@H](CCC(=O)O)NC(=O)CNC(=O)[C@@H](N)Cc1cnc[nH]1)C(C)C)C(C)C)C(C)C)C(=O)N[C@@H](C)C(=O)N[C@@H](C)C(=O)N[C@@H](CCCNC(=N)N)C(=O)N[C@@H](CC(=O)O)C(=O)N[C@@H](Cc1ccccc1)C(=O)N[C@H](C(=O)N[C@@H](CC(N)=O)C(=O)N[C@@H](Cc1c[nH]c2ccccc12)C(=O)N[C@@H](CC(C)C)C(=O)N[C@@H](CC(C)C)C(=O)N[C@@H](CCC(N)=O)C(=O)N[C@H](C(=O)N[C@@H](CCCCN)C(N)=O)[C@@H](C)O)C(C)C,IC50,RAW264.7,10.7 pM
